Assays:
[1] = test system: HDAC (nuclear fraction of Hela cells); assay: Assay of enzyme inhibition of HDAC (BIOMOL Kit); type: biochemical; conditions: substrate 200 μM, 15 min at RT
Experimental: 2.2 Assay of Enzyme Inhibition of HDAC
The in-vitro activity of HDAC inhibitors was assayed using a BIOMOL Kit, according to the instructions from the manufacturer (Biomolecular Research Laborator). 15 μl of 30× diluted nuclear fraction of Hela cells, was diluted to 50 μl with the assay buffer containing the HDAC inhibitor and the substrate (lysine with acetylated amino group on the side chain) at a concentration of 200 μM. The samples were incubated for 15 min at RT and then exposed to a developer (10 min at RT). In this last step a fluorophore was produced, whose fluorescence was measured using an excitation wavelength of 355 nm and an emission at 460 nm. The IC50 was calculated using GraphPad Software.

A549 cells = assay: Cell growth, CellTiter-Glo Luminescent Cell Viability Assay, A549; type: cell-based; conditions: Homo sapiens, 72 h incubation, read-out: IC50 antiproliferative assay A549
Source text: (§1) CellTiter-Glo® Luminescent Cell Viability Assay (Promega) is a homogeneous method of determining the number of viable cells in culture based on quantitation of the present ATP, which indicates the presence of metabolically active cells. The homogeneous assay procedure involves addition of a single reagent (CellTiter-Glo® Reagent) directly to the cells, which leads to cell lysis and generation of a luminescent signal proportional to the amount of the ATP and the number of cells present in culture. The assay relies on the properties of a proprietary thermostable luciferase (Ultra-Glo® recombinant luciferase), which generates a luminescent signal.
(§2) K562, A549 and HCT-116 cells, in exponential growth, were incubated for 72 h with different concentrations of the inhibitors. After 72 h, a volume of CellTiter-Glo® Reagent equal to the volume of cell culture medium was added. The content was mixed for 2 min to induce cell lysis. The luminescence was recorded after further 10 min at RT in order to obtain a stabilized luminescent signal.
(§3) The IC50 was calculated using GraphPad Software.
(§4) IC50 results were allocated to one of 3 ranges as follows: Range A: IC50≦1.0 μM; Range B: from 1.0 to 3.0 μM; Range C: IC50≧3.0 μM.

HCT-116 cells = assay: Cell growth, CellTiter-Glo Luminescent Cell Viability Assay, HCT-116; type: cell-based; conditions: Homo sapiens, HCT116 cells, 72 h incubation, read-out: IC50 antiproliferative assay HCT116
Source text: as §1, §2, §3, §4

K562 cells = assay: Cell growth, CellTiter-Glo Luminescent Cell Viability Assay, K562; type: cell-based; conditions: Homo sapiens, 72 h incubation, read-out: IC50 antiproliferative assay K562
Source text: as §1, §2, §3, §4

Row | Structure (SMILES) | IC50 [1] [nM] | IC50 (A549 cells) [nM] | IC50 (HCT-116 cells) [nM] | IC50 (K562 cells) [nM]
1 | CC(=O)N1CCC2(CC1)Oc1ccc(/C=C/C(=O)NO)cc1C2=O [Example 22, (E)-3-{1′-Acetyl-3-oxo-spiro[benzofuran-2(3H), 4′-piperidin]-5-yl}-N-hydroxy-acrylamide] | > 1000 | ≥ 3000 | ≥ 3000 | ≥ 3000
2 | O=C(/C=C/c1ccc2c(c1)C(=O)C1(CCN(C(=O)c3ccccc3)CC1)O2)NO [Example 23, (E)-3-{1′-Benzoyl-3-oxo-spiro[benzofuran-2(3H), 4′-piperidin]-5-yl}-N-hydroxy-acrylamide] | > 1000 | ≥ 3000 | ≥ 3000 | ≥ 3000
3 | CCOC(=O)N1CCC2(CC1)Oc1ccc(/C=C/C(=O)NO)cc1C2=O [Example 24, (E)-3-{1′-Ethyloxycarbonyl-3-oxo-spiro[benzofuran-2(3H), 4′-piperidin]-5-yl}-N-hydroxy-acrylamide] | > 1000 | ≥ 3000 | ≥ 3000 | 1000 to 3000
4 | O=C(/C=C/c1ccc2c(c1)C(=O)NC1(CCN(Cc3ccccc3)CC1)O2)NO [Example 25, (E)-3-{1′-Benzyl-3,4-dihydro-4-oxo-spiro[2H-(1,3)-benzoxazine-2,4′-piperidin]-6-yl}-N-hydroxy-acrylamide] | < 100 | 1000 to 3000 | ≤ 1000 | ≤ 1000
5 | O=C(/C=C/c1ccc2c(c1)C(=O)NC1(CCN(Cc3ccccc3)CC1)N2)NO [Example 26, (E)-3-{1-Benzyl-3′,4′-dihydro-4′-oxo-spiro[piperidine-4,2′(1′H)-quinazoline]-6′-yl}-N-hydroxy-acrylamide] | 100 to 1000 | ≥ 3000 | ≥ 3000 | ≥ 3000
6 | O=C(/C=C/c1ccc2c(c1)C(=O)CC1(CCN(c3ncccn3)CC1)O2)NO [Example 27, (E)-3-{1′-Pyrimidin-2-yl-4-oxo-spiro[chromane-2,4′-piperidine]-6-yl}-N-hydroxy-acrylamide] | 100 to 1000 | ≥ 3000 | 1000 to 3000 | ≥ 3000
7 | Cc1ccccc1CN1CCC2(CC1)CC(=O)c1cc(/C=C/C(=O)NO)ccc1O2 [Example 28, (E)-3-{1′-(2-Methyl-benzyl)-4-oxo-spiro[chromane-2,4′-piperidine]-6-yl}-N-hydroxy-acrylamide] | 100 to 1000 | 1000 to 3000 | 1000 to 3000 | ≤ 1000
8 | Cc1cccc(CN2CCC3(CC2)CC(=O)c2cc(/C=C/C(=O)NO)ccc2O3)c1 [Example 29, (E)-3-{1′-(3-Methyl-benzyl)-4-oxo-spiro[chromane-2,4′-piperidine]-6-yl}-N-hydroxy-acrylamide] | 100 to 1000 | 1000 to 3000 | ≤ 1000 | ≤ 1000
9 | Cc1ccc(CN2CCC3(CC2)CC(=O)c2cc(/C=C/C(=O)NO)ccc2O3)cc1 [Example 30, (E)-3-{1′-(4-Methyl-benzyl)-4-oxo-spiro[chromane-2,4′-piperidine]-6-yl}-N-hydroxy-acrylamide] | 100 to 1000 | 1000 to 3000 | ≤ 1000 | ≤ 1000
10 | COc1ccccc1CN1CCC2(CC1)CC(=O)c1cc(/C=C/C(=O)NO)ccc1O2 [Example 31, (E)-3-{1′-(2-Methoxy-benzyl)-4-oxo-spiro[chromane-2,4′-piperidine]-6-yl}-N-hydroxy-acrylamide] | 100 to 1000 | ≤ 1000 | ≤ 1000 | ≤ 1000
11 | COc1cccc(CN2CCC3(CC2)CC(=O)c2cc(/C=C/C(=O)NO)ccc2O3)c1 [Example 32, (E)-3-{1′-(3-Methoxy-benzyl)-4-oxo-spiro[chromane-2,4′-piperidine]-6-yl}-N-hydroxy-acrylamide] | 100 to 1000 | 1000 to 3000 | ≤ 1000 | ≤ 1000
12 | COc1ccc(CN2CCC3(CC2)CC(=O)c2cc(/C=C/C(=O)NO)ccc2O3)cc1 [Example 33, (E)-3-{1′-(4-Methoxy-benzyl)-4-oxo-spiro[chromane-2,4′-piperidine]-6-yl}-N-hydroxy-acrylamide] | 100 to 1000 | ≤ 1000 | ≤ 1000 | ≤ 1000
13 | O=C(/C=C/c1ccc2c(c1)C(=O)CC1(CCN(Cc3ccccc3F)CC1)O2)NO [Example 34, (E)-3-{1′-(2-Fluoro-benzyl)-4-oxo-spiro[chromane-2,4′-piperidine]-6-yl}-N-hydroxy-acrylamide] | 100 to 1000 | 1000 to 3000 | ≤ 1000 | ≤ 1000
14 | O=C(/C=C/c1ccc2c(c1)C(=O)CC1(CCN(Cc3cccc(F)c3)CC1)O2)NO [Example 35, (E)-3-{1′-(3-Fluoro-benzyl)-4-oxo-spiro[chromane-2,4′-piperidine]-6-yl}-N-hydroxy-acrylamide] | 100 to 1000 | 1000 to 3000 | 1000 to 3000 | ≤ 1000
15 | O=C(/C=C/c1ccc2c(c1)C(=O)CC1(CCN(Cc3ccc(F)cc3)CC1)O2)NO [Example 36, (E)-3-{1′-(4-Fluoro-benzyl)-4-oxo-spiro[chromane-2,4′-piperidine]-6-yl}-N-hydroxy-acrylamide] | 100 to 1000 | 1000 to 3000 | ≤ 1000 | ≤ 1000
16 | O=C(/C=C/c1ccc2c(c1)C(=O)CC1(CCN(Cc3ccccc3Cl)CC1)O2)NO [Example 37, (E)-3-{1′-(2-Chloro-benzyl)-4-oxo-spiro[chromane-2,4′-piperidine]-6-yl}-N-hydroxy-acrylamide] | 100 to 1000 | 1000 to 3000 | 1000 to 3000 | 1000 to 3000
17 | O=C(/C=C/c1ccc2c(c1)C(=O)CC1(CCN(Cc3cccc(Cl)c3)CC1)O2)NO [Example 38, (E)-3-{1′-(3-Chloro-benzyl)-4-oxo-spiro[chromane-2,4′-piperidine]-6-yl}-N-hydroxy-acrylamide] | 100 to 1000 | 1000 to 3000 | 1000 to 3000 | ≤ 1000
18 | O=C(/C=C/c1ccc2c(c1)C(=O)CC1(CCN(Cc3ccc(Cl)cc3)CC1)O2)NO [Example 39, (E)-3-{1′-(4-Chloro-benzyl)-4-oxo-spiro[chromane-2,4′-piperidine]-6-yl}-N-hydroxy-acrylamide] | 100 to 1000 | 1000 to 3000 | ≤ 1000 | ≤ 1000
19 | O=C(/C=C/c1ccc2c(c1)C(=O)CC1(CCN(Cc3ccccn3)CC1)O2)NO [Example 40, (E)-3-{1′-(Pyridin-2-ylmethyl)-4-oxo-spiro[chromane-2,4′-piperidine]-6-yl}-N-hydroxy-acrylamide] | 100 to 1000 | 1000 to 3000 | ≤ 1000 | ≤ 1000
20 | O=C(/C=C/c1ccc2c(c1)C(=O)CC1(CCN(Cc3cccnc3)CC1)O2)NO [Example 41, (E)-3-{1′-(Pyridin-3-ylmethyl)-4-oxo-spiro[chromane-2,4′-piperidine]-6-yl}-N-hydroxy-acrylamide] | 100 to 1000 | 1000 to 3000 | ≤ 1000 | 1000 to 3000
21 | O=C(/C=C/c1ccc2c(c1)C(=O)CC1(CCN(Cc3ccncc3)CC1)O2)NO [Example 42, (E)-3-{1′-(Pyridin-4-ylmethyl)-4-oxo-spiro[chromane-2,4′-piperidine]-6-yl}-N-hydroxy-acrylamide] | 100 to 1000 | 1000 to 3000 | ≤ 1000 | 1000 to 3000
22 | CS(=O)(=O)N1CCC2(CC1)CC(=O)c1cc(/C=C/C(=O)NO)ccc1O2 [Example 43, (E)-3-{1′-Methanesulfonyl-4-oxo-spiro[chromane-2,4′-piperidine]-6-yl}-N-hydroxy-acrylamide] | 100 to 1000 | ≥ 3000 | ≥ 3000 | ≥ 3000
23 | O=C(/C=C/c1ccc2c(c1)C(=O)CC1(CCN(S(=O)(=O)c3ccccc3)CC1)O2)NO [Example 44, (E)-3-{1′-Phenylsulfonyl-4-oxo-spiro[chromane-2,4′-piperidine]-6-yl}-N-hydroxy-acrylamide] | 100 to 1000 | ≥ 3000 | 1000 to 3000 | 1000 to 3000
24 | O=C(/C=C/c1ccc2c(c1)C(=O)CC1(CCN(CCCc3ccccc3)CC1)O2)NO [Example 45, (E)-3-{1′-(3-Phenyl-propyl)-4-oxo-spiro[chromane-2,4′-piperidine]-6-yl}-N-hydroxy-acrylamide] | 100 to 1000 | 1000 to 3000 | ≤ 1000 | ≤ 1000
25 | CCNC(=O)N1CCC2(CC1)CC(=O)c1cc(/C=C/C(=O)NO)ccc1O2 [Example 46, (E)-3-{1′-Ethylcarbamoyl-4-oxo-spiro[chromane-2,4′-piperidine]-6-yl}-N-hydroxy-acrylamide] | 100 to 1000 | ≥ 3000 | ≥ 3000 | ≥ 3000

Source: patent US9115148B2, “Spirocyclic derivatives as histone deacetylase inhibitors” (DAC S.R.L., priority 2008, dated 2015)
